According to US20090274778A1 (priority 2004, published 2009):

Tests used:
[1] = biological target: T1, COX-2 (Homo sapiens, UniProt P35354); conditions: specificity for COX-2 over COX-1, background statement; cited from earlier work
T1 sequence (P35354 18-604): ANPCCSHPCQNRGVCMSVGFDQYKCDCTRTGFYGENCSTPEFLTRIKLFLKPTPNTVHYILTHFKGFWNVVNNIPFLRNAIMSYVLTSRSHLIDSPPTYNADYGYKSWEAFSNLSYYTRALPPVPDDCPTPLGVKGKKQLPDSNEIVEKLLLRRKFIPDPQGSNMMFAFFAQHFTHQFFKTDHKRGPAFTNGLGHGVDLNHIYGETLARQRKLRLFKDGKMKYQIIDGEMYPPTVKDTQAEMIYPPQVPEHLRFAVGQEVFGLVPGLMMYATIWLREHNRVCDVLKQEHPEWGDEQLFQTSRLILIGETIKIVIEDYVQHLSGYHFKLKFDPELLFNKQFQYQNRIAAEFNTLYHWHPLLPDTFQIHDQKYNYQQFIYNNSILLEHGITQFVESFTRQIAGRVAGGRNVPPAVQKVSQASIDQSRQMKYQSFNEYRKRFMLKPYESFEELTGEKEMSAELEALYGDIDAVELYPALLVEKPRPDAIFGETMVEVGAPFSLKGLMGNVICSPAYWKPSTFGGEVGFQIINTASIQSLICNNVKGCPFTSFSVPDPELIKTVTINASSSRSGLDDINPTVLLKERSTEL

[2] = biological target: T2, COX-1 enzyme (ovine) (Ovis aries, UniProt P05979); assay: COX-1 enzyme inhibition (COX-1 synthesis of PGE2); type: biochemical
T2 construct: purchased Cayman Chemical 60100
T2 sequence (P05979 25-600): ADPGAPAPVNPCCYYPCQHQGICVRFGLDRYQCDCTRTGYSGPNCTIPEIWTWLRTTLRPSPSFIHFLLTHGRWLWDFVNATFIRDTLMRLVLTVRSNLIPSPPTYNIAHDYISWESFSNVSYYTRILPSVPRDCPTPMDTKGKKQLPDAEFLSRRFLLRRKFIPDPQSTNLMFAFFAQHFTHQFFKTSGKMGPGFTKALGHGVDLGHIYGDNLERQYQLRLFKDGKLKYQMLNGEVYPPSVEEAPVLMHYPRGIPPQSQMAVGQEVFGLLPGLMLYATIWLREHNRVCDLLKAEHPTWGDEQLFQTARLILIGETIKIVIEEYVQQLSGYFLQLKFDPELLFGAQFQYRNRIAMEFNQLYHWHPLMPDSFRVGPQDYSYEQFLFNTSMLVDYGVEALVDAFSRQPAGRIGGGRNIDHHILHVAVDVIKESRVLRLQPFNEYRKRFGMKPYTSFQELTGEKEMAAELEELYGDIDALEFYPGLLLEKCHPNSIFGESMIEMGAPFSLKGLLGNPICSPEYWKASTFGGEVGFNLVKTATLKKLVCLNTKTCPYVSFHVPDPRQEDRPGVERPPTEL
Experimental: Determination of COX-1 Enzyme Inhibition by Hops Extract—The ability of a test material to inhibit COX-1 synthesis of PGE2 was determined essentially as described by Noreen, Y., et al. (J. Nat. Prod. 61, 2-7, 1998). […]

SMILES	reported COX-2 specificity [1]	IC50 [2] [µM]
CC(=O)Oc1ccccc1C(=O)O [aspirin]	0.6	–
COc1cc(/C=C/C(=O)CC(=O)/C=C/c2ccc(O)c(OC)c2)ccc1O [curcumin]	–	27.1
